According to patent US5032398A, “Selective modification of the catalytic subunit of pertussis toxin” (priority 1986, dated 1991):
Values joined by “and” are separate entries in the source; they are usually repeats but may differ in a detail not shown here. Equal values may be shown once. Read-outs that look alike come from different tables or passages of the source.

Tests used:
[1] = target: T1, pertussis toxin (Bordetella pertussis, UniProt P04977); assay: Effect of detergents on the NADase activity of pertussis toxin (Example Four); format: biochemical; conditions: 1 mM ATP, 10 mM DTT; for Fractional Activity with CHAPS: detergent 1 weight percent plus CHAPS 1%; for Fractional Activity with CHAPS / Fractional Activity without CHAPS: relative to 1% CHAPS alone; for Fractional Activity without CHAPS: detergent 1 weight percent
Experimental: (§1) The pertussis toxin in the Examples comprised 50 μg of the toxin in a 500 μl solution of 10 mM sodium phosphate-50 mM sodium chloride-water solution having a pH of 7. The enzymatic activity was detected as the hydrolysis of nicotinamide labelled NAD and ion-exchange column chromatography to resolve the product from the substrate. Unless otherwise noted, the assay was initiated by adding 0.5 to 2.5 μg of the toxin to a reaction mixture for a final volume of 100 μl. The NADase reaction was terminated by adding 0.85 ml of ice-cold water. The entire 0.95 ml was then pipetted into a QAE-Sephadex column (chloride form) and the labelled nicotinamide eluted with 3 ml of water directly into a scintillation vial and counted. […] One unit of NADase activity is defined as 1 pmol NAD hydrolyzed per hour.
The effect of detergents on the NADase activity of pertussis toxin was measured in the presence of various detergents at a concentration of 1 weight percent in either the absence or presence of the detergent CHAPS (1 percent by weight). ATP was present in all assays in a concentration of 1 mM, and DTT concentration was 10 mM. Fractional activity is shown in Table III and is defined as activity divided by activity in the presence of 1% CHAPS. The value given is the average for two separate trials, and in each trial duplicates were measured for each condition.

[2] = tested on: S1 -S5 subunits of the toxin; assay: Labelled iodoacetate incorporation into toxin subunits, electrophoresis and x-ray film (Examples Two and Six); design: species or system Bordetella pertussis; conditions: CHAPS added, compared with DTT and ATP or DTT alone
Experimental: Pertussis toxin (2.5 μg) was incubated for thirty minutes at 37° C. in 50 μl of 50 mM Tris-HCl (pH 8.0) with or without combinations of the activators ATP, CHAPS and DTT. During this incubation, ATP was 1 mM, CHAPS was 1 weight percent, and DTT was 0.5 mM, when present. Following this incubation, 75 nmol (1.34 microCi of iodo[^14 C]acetate and 25 μl of water were then added, and the tubes incubated for an additional thirty minutes under nitrogen gas at 30° C. in the dark. This labelling reaction was terminated by adding 1 ml of ice-cold water containing 7.5 mM non-radioactive iodoacetate, 2.5 μg bovine serum albumin, and 150 μg sodium deoxycholate. After ten minutes on ice, 100 μl 72% triochloroacetic acid was added, and the precipitate recovered by centrifugation. Sodium dodecylsulfate and beta-mercaptoethanol were added, the sample heated to 95° C. for one minute, and then electrophoresed using 15% polyacrylamide gels. The fixed gels were then treated, dried and used to expose x-ray film at -70° C.
(§2) Pertussis toxin was incubated first at 37° C. for fifteen minutes in […] buffer A (100 mM Tris-HCl, pH 8.0 with 1 mM NaEDTA). EDTA was added to chelate divalent cations, which may promote oxidation of free --SH groups. During this incubation, DTT and ATP were present in concentrations of 1 mM each, and CHAPS was present in a concentration of 1 weight percent. Labelled iodoacetate was then added ([…], 12.5 mM), and the tube incubated on ice for twenty hours. The sample was then mixed with sodium dodecylsulfate and β-mercaptoethanol, heated at 95° C. for one minute, and electrophoresed. After electrophoresis, the gel was fixed, treated with Fluorohance (Research Products International), dried and used to expose x-ray film.

[3] = target: T1, pertussis toxin; assay: Inactivation of NADase activity by iodoacetate after different activator combinations (Example Seven); format: biochemical; conditions: additions to first incubation only (DTT 1 mM, ATP 1 mM, CHAPS 1%), second incubation none
Experimental: as §2
(§3) Pertussis toxin was incubated at 37° C. for fifteen minutes as described in Example Six, and then a second incubation was begun by adding 10 μl buffer A with or without 12.5 mM iodoacetate, mixing the contents of the tube and lowering the temperature to 30° C. After fifteen minutes, the tubes were shifted to an ice bath for ten minutes. A third incubation was then begun by adding 10 μl buffer A containing 200 mM DTT to those tubes containing iodoacetate to scavenge the iodoacetate. To those tubes not containing iodoacetate during the second incubation, a mixture of 200 mM DTT and 12.5 mM iodoacetate in buffer A, previously incubated for an hour on ice, was added. The third incubation was continued for one hour on ice.
(§4) The contents of each tube were then assayed for NADase activity by adding 40 μl of a reaction mix consisting of buffer A containing carbon-14 labelled NAD (final concentration in the 100 μl final volume was 25 μM), and 50 mM sodium chloride. Different reaction mixtures with various additions were used, so that in all tubes the final concentration of ATP was 1 mM and CHAPS was 1 weight percent. The assay was conducted at 37° C. for sixty minutes, and the released labelled nicotinimide was isolated and counted. The iced controls were formed by incubating pertussis toxin (1 μg) on ice in 10 mM sodium phosphate (pH 7) and 50 mM sodium chloride during the first three incubations. […] The first three incubations were done under a nitrogen atmosphere using degassed conditions, and the second and third incubations were done under subdued light.

[4] = target: T1, pertussis toxin; assay: Inactivation of NADase activity by sulfhydryl reagents, 6 minutes or 18 hours at 0-4° (Example Eight); format: biochemical
Experimental: as §3, §4
The procedure followed in Example Seven was repeated for this study, except that N-ethylmaleimide, chloroacetamide or chloroacetate were substituted for iodoacetate. After the 30° C. incubation, the tubes were either incubated for six minutes or eighteen hours at 0°-4° C. before the 10 μl of 200 mM DTT (with or without quenched reagent) was added. Those tubes receiving the DTT after six minutes were incubated for nineteen hours at 0°-4° C. prior to the NADase assay. Those receiving the DTT after eighteen hours were incubated with DTT for one hour, as in Example Seven. The tubes were then assayed for NADase activity at the same time.

[5] = target: T1, pertussis toxin; assay: NADase activity in the presence of sulfhydryl reducing agents (Example Five); format: biochemical
Experimental: In the description herein, activation constants for the substances may be expressed by a numerical value (A0.5) by using an NADase assay.
as §1
Pertussis toxin NADase activity was assayed in the presence of various sulfhydryl reducing agents at various concentrations. The assay buffer contained 1% CHAPS and 1 mM ATP.

[6] = target: T1, pertussis toxin; assay: NADase activity of pertussis toxin after activation and treatment with alkylating reagent (Example One); format: biochemical
Source text: The ADP-ribosylating activity of the pertussis toxin can be detected as a nicotinamide-adenine dinucleotide-glycohydrolase (NADase) activity, which can be conveniently assayed through the use of [nicotinamide-^14 C] or [nicotinamide-^3 H] NAD. NAD consists of ADP-ribose linked to nicotinimide, and thus the extent of the release of ADP-ribose from NAD is an indication of the ability of the toxin to cause ill effects. In conducting this assay of the hydrolysis of labelled NAD, ion-exchange column chromatography was employed to resolve the product from the substrate according to the method described by Moss et al., J. Biol. Chem. 258, 11879 (1983) which is incorporated herein by reference. However, several modifications to this method were employed. First, a QAE-Sephadex resin was employed, as was a [nicotinamide-^3 H] NAD. Specifically, a 2 ml QAE-Sephadex column was first washed with 10 ml 1NHCl, followed by 10 ml H2 O, 20 ml 0.5M Tris-HCl pH 7.0, and 40 ml H2 O. [^3 H] NAD was applied, and the column washed with 20 ml water to elute impurities. Purified [^3 H] NAD was eluted with 0.25M NaCl, and stored in small aliquots at -70° C. The purified [^3 H] NAD contributed 50 mM NaCl (final concentration) to the NADase assays.
Before the end of the reaction, 2 ml QAE-Sephadex columns were treated with 10 ml 0.1M imidazole-HCl pH 7.0 with 1.0M NaCl, followed by 40 ml water. The NADase reaction (in 100 μl) was terminated by adding 0.85 ml of ice-cold water, and the entire 0.95 ml was pipetted into a treated QAE column. The labelled nicotinamide was then eluted with 3 ml of water directly into a scintillation vial and counted. The absorbed labelled NAD was then eluted into radioactive waste with 10 ml 0.1M imidazole-HCl pH 7.0 with 1.0M NaCl, and the column stored partially immersed in a water bath until the next assay.
In order to determine if any active toxin remained after the inactivation, a large excess of sulfhydryl reductant was added to each tube to scavenge unreacted sulfhydryl reagent. The NADase activity of the preparation was then measured. The three incubations were performed under a nitrogen atmosphere using degassed solutions to prevent oxidation of sulfhydryl groups which would prevent the sulfhydryl reagent from modifying the sulfhydryl group.
as §1
One-half microgram of pertussis toxin was incubated for thirty minutes at […] in 100 mM Tris-HCl (pH 8.0), with or without activators, in a volume of 50 μl. When present, ATP and pyrophosphate were present in a concentration of 2 mM, CHAPS at 2 weight percent, and DTT in a concentration of either 2 mM (trial 1) or 1 mM (trial 2). 10 μl of water with or without iodoacetate or N-ethylmaleimide was then added and a second incubation conducted at 30° C. for either thirty minutes (trial 1) or fifteen minutes (trial 2). After this incubation, 10 μl of 200 mM DTT was added to each tube, and the tubes were incubated for thirty (trial 1) or sixty minutes (trial 2) on ice to scavenge the iodoacetate or N-ethylmaleimide.

[7] = target: T1, pertussis toxin; assay: NADase activity in the presence of sulfhydryl reducing agents (Example Five); format: biochemical; conditions: 10 mM DTT without ATP
[8] = first incubation: ATP, DTT, CHAPS, 6 minutes at 0-4°
[9] = first incubation: ATP, DTT, CHAPS, 18 hours at 0-4°

T1 sequence (P04977 35-269 limits assumed): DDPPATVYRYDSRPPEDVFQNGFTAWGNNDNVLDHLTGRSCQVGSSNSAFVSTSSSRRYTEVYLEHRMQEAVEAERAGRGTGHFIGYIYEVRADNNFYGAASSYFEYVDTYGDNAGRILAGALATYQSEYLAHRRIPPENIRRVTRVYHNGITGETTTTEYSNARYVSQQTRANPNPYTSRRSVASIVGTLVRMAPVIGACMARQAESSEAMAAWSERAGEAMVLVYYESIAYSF
Sequence of S1 -S5 subunits of the toxin (P04977 35-269 limits assumed): as above
Sequence of S1 -S5 subunits of the toxin (P04978 28-226 limits assumed, further chain): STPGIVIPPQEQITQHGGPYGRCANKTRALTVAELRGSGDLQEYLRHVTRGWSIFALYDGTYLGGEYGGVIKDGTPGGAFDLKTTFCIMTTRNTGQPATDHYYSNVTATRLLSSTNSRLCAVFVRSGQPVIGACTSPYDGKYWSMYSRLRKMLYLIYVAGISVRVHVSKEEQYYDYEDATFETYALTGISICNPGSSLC
Sequence of S1 -S5 subunits of the toxin (P04979 29-227 limits assumed, further chain): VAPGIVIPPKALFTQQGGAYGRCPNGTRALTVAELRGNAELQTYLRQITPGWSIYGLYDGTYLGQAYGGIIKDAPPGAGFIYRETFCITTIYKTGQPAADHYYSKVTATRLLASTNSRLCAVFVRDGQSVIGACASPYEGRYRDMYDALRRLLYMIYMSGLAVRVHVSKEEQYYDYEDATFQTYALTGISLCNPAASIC
Sequence of S1 -S5 subunits of the toxin (P0A3R5 43-152 limits assumed, further chain): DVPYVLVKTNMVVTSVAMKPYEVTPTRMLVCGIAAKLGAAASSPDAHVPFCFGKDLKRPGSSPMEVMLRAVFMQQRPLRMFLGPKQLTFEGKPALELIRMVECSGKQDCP
Sequence of S1 -S5 subunits of the toxin (P04981 35-133 limits assumed, further chain): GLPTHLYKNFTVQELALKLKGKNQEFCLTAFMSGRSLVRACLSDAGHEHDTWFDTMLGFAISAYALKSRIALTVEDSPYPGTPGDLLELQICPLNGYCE

## NP-40
[1]
  Fractional Activity with CHAPS: 0.97
  Fractional Activity without CHAPS: 0.54

## C[C@H](CCC(=O)NCCC[N+](C)(C)CCCS(=O)(=O)[O-])[C@H]1CC[C@H]2[C@@H]3[C@H](O)C[C@@H]4C[C@H](O)CC[C@]4(C)[C@H]3C[C@H](O)[C@]12C [CHAPS, 3-[(3-cholamidopropyl)-dimethylammonio]-1-propane sulfonate]
[2]
  Peak indicating the alkylation of the S1 subunit: increases
  Peaks indicating alkylation of the S2 and S3 subunits: substantially decreases
[3]
  Percent NADase activity relative to iced control: 106
[4]; additions to first incubation only, second incubation none, 18 hours at 0-4°
  NADase activity: 186 pmol per μg per hour
[1]; 1% CHAPS, two trials
  NADase activity in the presence of CHAPS alone: 153 units per microgram and 158 units per microgram

## N[C@@H](CS)C(=O)O [cysteine]
[5]
  Effectiveness as sulfhydryl reductant to prepare the toxin for deactivation, in words: effective
[5]; in the presence of ATP and CHAPS
  activation constant: the same constant

## CCN1C(=O)C=CC1=O [N-ethylmaleimide]
[6]; first incubation: DTT 1 mM, CHAPS 2%, ATP 2 mM, Experiment #2, second incubation 15 min at 30° C, 25 μM NAD
  NADase activity (%) of the activity of toxin treated the same way without alkylating agent: 13%
[6]; first incubation: DTT 1 mM, CHAPS 2%, pyrophosphate 2 mM, Experiment #2, second incubation 15 min at 30° C, 25 μM NAD
  NADase activity (%) of the activity of toxin treated the same way without alkylating agent: 46%
[6]; first incubation: DTT 2 mM, CHAPS 2%, ATP 2 mM, Experiment #1, second incubation 30 min at 30° C, 125 μM NAD
  NADase activity (%) of the activity of toxin treated the same way without alkylating agent: 11%
[6]; first incubation: DTT 2 mM, CHAPS 2%, pyrophosphate 2 mM, Experiment #1, second incubation 30 min at 30° C, 125 μM NAD
  NADase activity (%) of the activity of toxin treated the same way without alkylating agent: 60%
[6]; first incubation: none, Experiment #1, second incubation 30 min at 30° C, 125 μM NAD
  NADase activity (%) of the activity of toxin treated the same way without alkylating agent: 90%
[6]; first incubation: none, Experiment #2, second incubation 15 min at 30° C, 25 μM NAD
  NADase activity (%) of the activity of toxin treated the same way without alkylating agent: 106%
[4]; [8]
  NADase activity: 16 pmol per μg per hour
  percent of activity with no addition to second incubation: 15%
[4]; [9]
  NADase activity: 10 pmol per μg per hour
  percent of activity with no addition to second incubation: 10%

## Triton X-100
[1]
  Fractional Activity with CHAPS: 1.05
  Fractional Activity without CHAPS: 0.58

## O[C@H](CS)[C@H](O)CS (racemic) [DTT, dithiothreitol]
[5]
  Effectiveness as sulfhydryl reductant to prepare the toxin for deactivation, in words: effective
[5]; 10 mM DTT with 1 mM ATP
  NADase activity: 147 U per microgram toxin and 195 U per microgram toxin
[5]; read-out: concentration for half of the maximum effect (A0.5)
  EC50: 200 µM
[5]; read-out: concentration showing full activation
  EC100: 1000 µM
[3]; read-out: Percent NADase activity relative to iced control
  remaining activity at 1000 µM: 38%
[7]
  NADase activity: 18 U per microgram toxin and 36 U per microgram toxin

## N[C@@H](CCC(=O)N[C@@H](CS)C(=O)NCC(=O)O)C(=O)O [glutathione]
[5]
  Effectiveness as sulfhydryl reductant to prepare the toxin for deactivation, in words: effective
[5]; in the presence of ATP and CHAPS, read-out: activation constant
  EC50: 2000 µM
